Results from patent US20100061928A1, “LABELLED ANALOGUES OF HALOBENZAMIDES AS RADIOPHARMACEUTICALS” (Institut National De La Sante et De La Recherche Medicale …, priority 2006, published 2010).
Counter-ions that a name gives are not always drawn.

What was measured:
[1] = tested on: B16 F0 murine melanoma cells; assay: Colony forming technique: chemotherapeutic and radiotherapeutic (^125I) effects in vitro; format: cell-based
Experimental: The colony forming technique is involved, that is to say the growth of colonies of clones starting from tumour cells (B16 F0 murine melanoma cells) inoculated at a low concentration. This method makes it possible to visualize the cytotoxic and cytostatic properties of the compounds studied. The study was carried out in three parts:
The experiment is carried out on 6-well plates where 200 cells are inoculated in 2 ml of DMEM medium. After 20 hours, the medium is withdrawn and replaced with 2 ml of medium comprising the labelled compound at the desired concentration. This study is carried out in comparison with control wells comprising DMEM medium alone. […] The plates are incubated for 8 days and then the medium is withdrawn. The wells are rinsed with PBS and methanol is added for 3 minutes. Once attached, the cells are coloured with crystal violet with a contact time of 3 minutes. Subsequently, the colonies comprising more than 50 cells are counted using a dedicated counter. The growth of the treated colonies of cells is quantified in comparison with the controls. The activity of the product is expressed by a percentage of inhibition:
100−[(number of treated colonies)/(number of control colonies)]×100

murine melanoma (B16 F0) = assay: Cytotoxicity, Hoechst test, B16 F0
[2] = tested on: grafted B16 F0 murine melanoma tumour; assay: Biodistribution of the ^125I-labelled molecules in the melanoma-bearing mouse (autoradiography of whole-body sections); settings: for Biodistribution, radioactivity concentration in B 16, Mean: B 16 tumour
[3] = Elimination of the molecules: cumulative urinary and faecal excretion 0-72 hours; format: in vivo, mouse
tumour = assay: Dosimetry with regard to the tumour (MIRD programme, extrapolated to ^131I)
[4] = tested on: human fibroblast cell lines; assay: Cytotoxicity, Hoechst test, human fibroblasts; settings: Homo sapiens, Fibroblast, 48 h, read-out: IC50 Fibroblast
human melanoma (M4Beu) = assay: Cytotoxicity, Hoechst test, M4Beu; settings: read-out: IC50 M4Beu; M4Beu human melanoma, 48 hours incubation, Hoechst test
[5] = 1 H after i.v., 125I-labelled, dose = 2.1 MBq
[6] = 3 H after i.v., 125I-labelled, dose = 2.1 MBq
[7] = 6 H after i.v., 125I-labelled, dose = 2.1 MBq
[8] = 24 H after i.v., 125I-labelled, dose = 2.1 MBq
[9] = 72 H after i.v., 125I-labelled, dose = 2.1 MBq

Biodistribution, radioactivity concentration in B 16, Mean [2, 5]: 20.96 % ID/g
Biodistribution, radioactivity concentration in B 16, Mean [2, 6]: 23.65 % ID/g
Biodistribution, radioactivity concentration in B 16, Mean [2, 7]: 27.70 % ID/g
Biodistribution, radioactivity concentration in B 16, Mean [2, 8]: 11.47 % ID/g
Biodistribution, radioactivity concentration in B 16, Mean [2, 9]: 6.26 % ID/g
Biodistribution, radioactivity concentration in GB, Mean ([2]; GB, 3 H after i.v., 125I-labelled, dose = 2.1 MBq): 107.29 % ID/g
Biodistribution, radioactivity concentration in Ic, Mean [2, 5]: 56.33 % ID/g
Biodistribution, radioactivity concentration in Ic, Mean [2, 6]: 52.72 % ID/g
Biodistribution, radioactivity concentration in Ic, Mean [2, 7]: 52.58 % ID/g
Biodistribution, radioactivity concentration in Ic, Mean [2, 8]: 2.30 % ID/g
Biodistribution, radioactivity concentration in Sc, Mean [2, 5]: 11.25 % ID/g
Biodistribution, radioactivity concentration in Sc, Mean [2, 6]: 14.52 % ID/g
Biodistribution, radioactivity concentration in Sc, Mean [2, 7]: 16.09 % ID/g
Biodistribution, radioactivity concentration in Sc, Mean [2, 8]: 2.95 % ID/g
tumour concentration, times higher than with BZA ([2]; at 72 hours (FIG. 1B)): 8 times
Biodistribution, radioactivity concentration in blood, Mean [2, 5]: 3.92 % ID/g
Biodistribution, radioactivity concentration in blood, Mean [2, 6]: 1.39 % ID/g
Biodistribution, radioactivity concentration in brain, Mean [2, 5]: 1.79 % ID/g
Biodistribution, radioactivity concentration in brain, Mean [2, 6]: 0.44 % ID/g
tumour concentration, % of the injected dose per gram of tumour ([2]; from the first hour): 21 % ID/g
Biodistribution, radioactivity concentration in kidney, Mean [2, 5]: 9.45 % ID/g
Biodistribution, radioactivity concentration in kidney, Mean [2, 6]: 3.42 % ID/g
Biodistribution, radioactivity concentration in kidney, Mean [2, 7]: 1.55 % ID/g
Biodistribution, radioactivity concentration in liver, Mean [2, 5]: 10.94 % ID/g
Biodistribution, radioactivity concentration in liver, Mean [2, 6]: 5.83 % ID/g
Biodistribution, radioactivity concentration in liver, Mean [2, 7]: 4.04 % ID/g
Biodistribution, radioactivity concentration in liver, Mean [2, 8]: 1.44 % ID/g
Biodistribution, radioactivity concentration in lungs, Mean [2, 5]: 8.77 % ID/g
Biodistribution, radioactivity concentration in lungs, Mean [2, 6]: 2.84 % ID/g
Biodistribution, radioactivity concentration in lungs, Mean [2, 7]: 1.40 % ID/g
Biodistribution, radioactivity concentration in muscle, Mean [2, 5]: 1.27 % ID/g
Biodistribution, radioactivity concentration in muscle, Mean [2, 6]: 0.45 % ID/g
Biodistribution, radioactivity concentration in muscle, Mean [2, 7]: 0.42 % ID/g
Biodistribution, radioactivity concentration in pancreas, Mean [2, 5]: 6.63 % ID/g
Biodistribution, radioactivity concentration in pancreas, Mean [2, 6]: 1.53 % ID/g
Biodistribution, radioactivity concentration in spleen, Mean [2, 5]: 14.02 % ID/g
Biodistribution, radioactivity concentration in spleen, Mean [2, 6]: 13.84 % ID/g
Biodistribution, radioactivity concentration in spleen, Mean [2, 7]: 18.88 % ID/g
Biodistribution, radioactivity concentration in thyroid, Mean [2, 6]: 8.63 % ID/g
Biodistribution, radioactivity concentration in thyroid, Mean [2, 7]: 54.71 % ID/g
Biodistribution, radioactivity concentration in thyroid, Mean [2, 8]: 214.42 % ID/g
Biodistribution, radioactivity concentration in thyroid, Mean [2, 9]: 12.74 % ID/g
Biodistribution, radioactivity concentration in uvea, Mean [2, 5]: 14.19 % ID/g
Biodistribution, radioactivity concentration in uvea, Mean [2, 6]: 17.49 % ID/g
Biodistribution, radioactivity concentration in uvea, Mean [2, 7]: 14.74 % ID/g
Biodistribution, radioactivity concentration in uvea, Mean [2, 8]: 11.64 % ID/g
Biodistribution, radioactivity concentration in uvea, Mean [2, 9]: 11.19 % ID/g
Faecal elimination 0-72 hours (Faeces) ([3]; cumulative excretion 0-72 hours, faeces, mice in metabolic cages): 61%
Urinary and faecal elimination 0-72 hours (Total) ([3]; cumulative excretion 0-72 hours, urine + faeces): 66.8%
Urinary elimination 0-72 hours (Urine) ([3]; cumulative excretion 0-72 hours, urine, mice in metabolic cages): 5.8%
elimination route (in words) ([3]; urinary versus faecal, 0-72 hours): faecal route predominates
Effective period (tumour; extrapolated to 131I labelling): 30.0 h
Biological period (tumour; from biodistribution data): 35.5 hours
SMILES: CCN(CC)CCNC(=O)c1cccc2nc3cc(I)ccc3nc12 [compound 151, N-(2-diethylaminoethyl)-7-iodophenazine-1-carboxamide dihydrochloride]
inhibition at 2 µM ([1]; Mus musculus, B16F0, cold compound, 2 μM, colony forming, 48 hours contact, read-out: % of inhibition (Chemotherapeutic effects alone)): 21%
inhibition at 4 µM ([1]; Mus musculus, B16F0, cold compound, 4 μM, colony forming, 48 hours contact, read-out: % of inhibition (Chemotherapeutic effects alone)): 74%
inhibition at 6 µM ([1]; Mus musculus, B16F0, cold compound, 6 μM, colony forming, 48 hours contact, read-out: % of inhibition (Chemotherapeutic effects alone)): 87%
inhibition at 8 µM ([1]; Mus musculus, B16F0, cold compound, 8 μM, colony forming, 48 hours contact, read-out: % of inhibition (Chemotherapeutic effects alone)): 97%
inhibition at 10 µM ([1]; Mus musculus, B16F0, cold compound, 10 μM, colony forming, 48 hours contact, read-out: % of inhibition (Chemotherapeutic effects alone)): 100%
Cumulative effect (% inhib) (Radiotherapeutic and chemotherapeutic effects) ([1]; cold compound 151 at 2 μM with 0 activity of [125I]-151): 19%
IC50 (murine melanoma (B16 F0); read-out: IC50 B16, B16 F0 murine melanoma, 48 hours incubation, Hoechst test): 3.6 µM
cytotoxic activity compared with DACA (in words) (murine melanoma (B16 F0); various cell lines studied (B16 F0, M4Beu, fibroblasts)): activities similar to that of DACA
IC50 [4]: 2700 nM
IC50 (human melanoma (M4Beu)): 3.6 µM
